Reference: patent US20020111314A1, “Novel stimulation of gene expression and protein synthesis of heat shock protein 72/73 (Hsp 70)” (The Trustees of Columbia University, priority 1995, published 2002)
“Also recorded” adds a separate entry of the source. Peptide text beside a SMILES is read from it.

Key:
[1] = test system: cysteine proteases, calpain and cathepsin B; settings: Rock, et al., 1994; cited from earlier work
[2] = test system: Hsp70; assay: Hsp70 induction in HepG2 cells ([3H]-leucine labeling, denaturing immunoprecipitation); format: cell-based, human; settings: HepG2
Procedure: HepG2 cells were grown up to 95% confluence and then preincubated for 4 hours in a 37° C. incubator with serum-free minimum essential medium (MEM), followed by radiolabeling with 3H-leucine (150 μCi/ml) dissolved in serum-free, leucine-free medium. Preincubation and labeling medium each contained 1.5% bovine serum albumin (BSA) plus different concentrations of ALLN as indicated. After labeling, cells were collected and lysed, and Hsp70 was immunoprecipitated under denaturing conditions as described under Experimental Details. Cell lysates containing an equal amount of TCA-insoluble radioactivity were used for immunoprecipitation. (A): The immunoprecipitates were analyzed by sodium dodecyl sulfate-polyacryamide gel electrophoresis (SDS-PAGE) and fluorography. Numbers on the left-hand side denote molecular markers. (B): The Hsp70 radioactivity was quantitated by scintillation counting and plotted. All the values were presented as means±SD from three individual culture dishes.
(§1) FIGS. 3A-3B: Effects of the other protease inhibitors on Hsp70 biosynthesis in HepG2 cells. HepG2 cells were preincubated in serum-free MEM containing either 1.5% BSA alone (Control), or BSA plus 40 μg/ml of ALLN, 40 μg/ml of ALLM, 50 μg/ml of leupeptin, 50 μg/ml of pepstatin A, 25 μg/ml of E-64d, 1 mM of phenylmethylsulfonyl fluoride (PMSF), 100 KIU/ml of apotinin, 1 mM of Benzamidine (Benz), 200 μM of calpain inhibitor peptide (CIP). Radiolabeling (in the presence of protease inhibitors), lysis and immunoprecipitation were performed as described in FIG. 1. The Hsp70 specific radioactivity (A) and the amount of total incorporated radioactivity (TCA-cpm) (B) were compared with each other. All the values were presented as the mean±SD from three individual culture dishes.
FIGS. 9A-9B: Effects of proteasome inhibitors on Hsp70 induction. HepG2 cells were preincubated with the proteasome inhibitors MG132 at a final concentration of either 10 μM or 30 μM (A), or lactacystin at 10 μM (B) for 4 hours under conditions described in FIG. 3. These cells were then subjected to radiolabeling (30 min), cell lysis, and immunoprecipitation with anti-Hsp70 antibody. The experiments with MG132 (A) were repeated twice; the effects of lactacystin (B) were studied in triplicate culture dishes.
ALLN, leupeptin, mouse anti-human Hsp72/73 monoclonal antibody, a secondary antibody conjugated with horseradish peroxidase (HRP) (goat anti-rabbit immunoglubin G [IgG]), and rabbit anti-rat IgG antibody were from Boehringer Mannheim Co. Anti-Human Hsp25 and anti-human Hsp60 monoclonal antibodies, ALLM, Calpain inhibitor peptide (CIP), dimethyl sulfoxide (DMSO) and dithiothreitol (DTT) were from Sigma. Human Hsp70 oligonucleotide probe was from Oncogene Science. This oligonucleotide was ^32P labeled at the 5′-end by T4 Kinase, which was from Biolabs. ^32P was from ICN Pharmaceutical Inc. L-[4,5-^3H] leucine was from Amersham Co. Anti-human Bip (immunoglobulin heavy chain binding protein, also called Grp78), anti-human Hsp27, anti-human Hsp60, and anti-human Hsp90 monoclonal antibodies were from Stress Genes. Anti-human Hsp86 and Hsp104 antibodies were from Affinity Bioreagent Inc. Nitrocellular transfer and immobilization membranes were from Schleicher & Schuell, Keene, N.H. RNA extraction kits were from Biotect, Tex. The polyclonal antibody against the human HSF1 protein was a generous gift from Dr. Carl Wu of the National Institute of Health (Rabindran, et al., 1993). Ethylene glycol bis(succunimidylsuccinate) (EGS) was from Pierce. Cbz-leucyl-leucyl-leucinal (MG132) was a gift of Dr. H. Ploegh at the Massachusetts Institute of Technology. All the other tissue culture supplies and chemicals were obtained from supplies as previously described (Dixon, et al., 1991). The HepG2 cell culture conditions were maintained as previously described (Dixon, et al., 1991).

[3] = test system: proteasomes; settings: Rock, et al., 1994; cited from earlier work
[4] = test system: hsp70, i.e. hsp72, mRNA; assay: Northern blot of hsp70 (hsp72) mRNA in HepG2 cells; format: cell-based, human; settings: ALLN 40 μg/ml plus actinomycin D 10 μg/ml or cycloheximide 50 μg/ml, 4 hours
Procedure: After 4 hours treatment at 37° C., cells were harvested. (B). […] The total RNA was prepared, and equal amounts of the samples were loaded and run on a 1% formaldehyde-agarose gel, blotted onto a nylon membrane, and subsequently hybridized with specific synthetic oligonucleotide probes for hsp70 mRNA as described under Experimental Details. The position of 28S and 18S rRNA are shown for reference.
Equal amounts of tRNA samples (10 μg) were size-fractionated on a 1% agarose-formaldehyde gel according to the methods described (Maniatis, et al., 1982) and transferred to a piece of QIAGEN plus nylon membrane. To determine loading and transfer efficiency, RNA was stained with ethidium bromide before and after transfer. The membrane was baked for 30 min. at 80° C. in vacuo (a vacuum) followed by UV cross-linking. It was then incubated for 4 hours at 65° C. in a prehybridization mixture containing 10% dextran sulfate, 1% SDS, 1M sodium chloride, 50 mM Tris-HCl (pH 7.5) and 100 μg/ml denatured salmon sperm DNA. […] The membrane was then washed four times with 2×SSC, 0.1% SDS at room temperature, one time at 65° C. for 30 min., and one time at room temperature again for 5 min., and finally rinsed with 2×SSC at room temperature.

[5] = test system: HSF1; assay: HSF1 steady-state level and trimerization (Western blot, EGS cross-linking) in HepG2 cells; format: cell-based, human
Procedure: HepG2 cells were treated with serum-free MEM containing 1.5% BSA for 2 hours at 37° C. without any additions (lane 1), at 37° C. but containing 40 μg/ml of ALLN in the medium (lane 2), at 37° C. in a medium containing both ALLN and 50 μg/ml of cycloheximide (lane 3), at 42° C. alone (lane 4), or at 42° C. plus cycloheximide in the medium (lane 5). Cell lysates were prepared as described under Experimental Details. The lysates were either directly run on the SDS-PAGE (A) to show the steady-state protein levels of HSF1 or subjected to cross-linking with ethylene glycol bis sucrinimidylsuccinate (EGS) before running the gel (B) to show the oligomeric forms of HSF1. The proteins were then transfered to a nitrocellulose membrane and immunoblotted with anti-human HSF1 antibody. Arrows on the right side indicates the monomeric, dimeric or trimeric forms of HSF1, respectively. This experiment was repeated three times with identical results.
Total RNA was prepared using the procedure of Chomczynski and Sacchi (Chomczynski, et al., 1987) and a commercially prepared reagent, TRISOLV™ (Biotecx Laboratories Inc., TX). Equal amounts of tRNA samples (10 μg) were size-fractionated on a 1% agarose-formaldehyde gel according to the methods described (Maniatis, et al., 1982) and transferred to a piece of QIAGEN plus nylon membrane. To determine loading and transfer efficiency, RNA was stained with ethidium bromide before and after transfer. The membrane was baked for 30 min. at 80° C. in vacuo (a vacuum) followed by UV cross-linking. It was then incubated for 4 hours at 65° C. in a prehybridization mixture containing 10% dextran sulfate, 1% SDS, 1M sodium chloride, 50 mM Tris-HCl (pH 7.5) and 100 μg/ml denatured salmon sperm DNA. Hybridization was carried out for 18 hours at 65° C. in the same buffer with a ^32P-labeled (1×10^6 cpm/ml) 40-mer oligonucleotide probe to the untranslated 5′ region of a human hsp70 gene (Oncogene Science). […] The membrane was then washed four times with 2×SSC, 0.1% SDS at room temperature, one time at 65° C. for 30 min., and one time at room temperature again for 5 min., and finally rinsed with 2×SSC at room temperature. This membrane was air dried and exposed to X-ray film at −80° C. for 48 hours. For measurement of the steady-state HSF1 protein levels, whole cell extracts were prepared by lysing the cells directly with 2×SDS-sample buffer (Maniatis, et al., 1982). For chemical cross-linking experiments, whole-cell extracts were prepared as described (Mosser, et al., 1988). Briefly, the cold PBS-washed cell pellets were quickly and repeatedly frozen in liquid nitrogen. […]

[6] = test system: HepG2 cells; assay: Total incorporation of radiolabel (TCA cpm) as indicator of cell toxicity in HepG2 cells; format: cell-based, human; settings: MG132 10 or 30 μM, lactacystin 10 μM, data not shown
Procedure: as §1
Preincubation and labeling media each contained either 1.5% bovine serum albumin (BSA) alone, or BSA plus ALLN (40 μg/ml except as otherwise indicated), or BSA plus other protease inhibitors at concentrations indicated in the figure legends. At the indicated times, cells were removed from the 37° C. incubator and placed on ice, washed with cold phosphate-buffer saline (PBS) twice and lysed with lysis buffer containing 1% Triton X-100 (TX100), 1% deoxycholic acid (DOC) and 0.1% SDS in PBS containing proteinase inhibitors: 2 mM phenylmethylsulfonyl fluoride (PMSF); 2 μg/ml ALLN; 2 μg/ml leupeptin; and 2 μg/ml aprotinin. After a 30 min. incubation with lysis buffer at 4° C., the lysates were centrifuged at 14,000 g in a microcentrifuge for 5 min., and the supernatants were adjusted to 1% SDS concentration and boiled for 5 min. to denature the proteins. 1% TX100 was then added to dilute the lysates to a final concentration of 0.1% SDS. Cell lysates containing equal amounts of trichloroacetic acid (TCA)-insoluble radioactivity were used for immunoprecipitations by incubating with individual monoclonal antibody (1 μg/ml) for 2.5 hours at 4° C. Protein-A Sepharose 4B was added afterwards and the lysates incubated for another 1.5 hours at 4° C. to collect the immunocomplexes. […]

[7] = test system: cysteine protease, serine protease, trypsin or chymotrypsin; settings: even upon extended exposure; Ward 1995, Fenteany 1995; cited from earlier work

Question: Which results are given for `CSCC[C@@H](C=O)NC(=O)[C@H](CC(C)C)NC(=O)[C@H](CC(C)C)NC(C)=O` [ALLM, N-acetyl-leucyl-leucyl-methioninal] (Ac-Leu-Leu-Met-aldehyde)?
Answer: activities against calpain and cathepsin B [1]: significant activities; induction of Hsp70 by protease inhibitors (FIG. 3A) ([2]; 4 h pre-treatment, ALLN 40, ALLM 40, leupeptin 50, pepstatin A 50, E-64d 25 μg/ml, PMSF 1 mM, aprotinin 100 KIU/ml): significantly induce; also recorded: less ability to induce Hsp70 levels; inhibition of proteasomes [3]: potent inhibitors

Question: Which “effect of co-treatment on ALLN-induced increase in hsp72 mRNA” value [4] does the source give for `C[C@@H]1C[C@@H]([C@H](O)CC2CC(=O)NC(=O)C2)C(=O)[C@@H](C)C1` [cycloheximide] here?
Answer: abolished

Question: What about the “effect on heat shock-associated HSF1 trimerization” value ([5]; 42° C. plus cycloheximide 50 μg/ml) of the same compound?
Answer: did not, however, affect

Question: And the “effect of cotreatment on ALLN-induced HSF1 trimerization” value ([5]; ALLN 40 μg/ml plus cycloheximide 50 μg/ml, 37° C.)?
Answer: abolished the effect of ALLN on HSF1 trimerization

Question: For `CC(=O)N[C@@H](CSC(=O)[C@]1([C@@H](O)C(C)C)NC(=O)[C@H](C)[C@@H]1O)C(=O)O` [lactacystin], which “induction of Hsp70 levels by proteasome inhibitors (FIG. 9)” value ([2]; 4 hours, MG132 10 μM or 30 μM, lactacystin 10 μM, 30 min labeling) is on record?
Answer: induced Hsp70 levels dramatically

Question: What about the “toxicity to the cells (TCA-precipitable radioactivities)” value [6] of the same compound?
Answer: without obvious toxicity

Question: What about the “effect on cysteine protease, serine protease, trypsin or chymotrypsin” value [7] of the same compound?
Answer: no detectable effect
